The source of these data is US20220096364A1, “Oral Care Compositions Comprising Prenylated Flavonoid” (The Procter & Gamble Company, priority 2020, published 2022).

Values after ≈ are worked out from the molar mass of the structure shown. Bounds are passed on as bounds.

For assay [1], the system named is Streptococcus mutans (ATCC strain 25175). Put plainly: Minimum inhibitory concentration (MIC) against Streptococcus mutans, 2-fold serial dilution in broth, visual scoring. Format: cell-based. To be noted: S. mutans ATCC 25175, TSB, overnight at 35° C., anaerobic chamber; for MIC: Streptococcus mutans, ATCC25175. The protocol: (§1) The minimum inhibitory concentration (MIC) values against Streptococcus mutans for a collection of prenylated flavonoids of varying octanol/water partition coefficients (Log P) were determined using a conventional protocol. A culture of Streptococcus mutans (S. mutans, ATCC strain 25175) was grown overnight (18-24 hour incubation time at 35° C.) in a Tryptone Soy Broth (TSB. BD, Becton, Dickinson and Company, Sparks, Md., USA) and adjusted to deliver a target count of between 2×10^7 and 2×10^8 CFU/mL using a turbidimetric target density at 600 nm. The inoculum was then diluted 1/1000 in TSB for S. mutans. A volume of 100 μL of inoculum was added to a row of wells (12 wells per row) of a 96-well plate for which the MIC value of a test compound would be determined. An additional 95 μL of inoculum was added to the first well in that row. For each compounded tested obtained as a pure isolate in DMSO (Phytolab GmbH, Germany), 5 μL of a stock solution (2 mg compound/mL DMSO) was also added to the first well in that row. Then, a 2-fold serial dilution was performed where 100 μL of the first well was transferred to the second well in a row and mixed with 100 μL of growth medium. This was repeated until the last well of a row was reached. In the last well, 100 μL was discarded such that all wells contained 100 μL. The plates were covered and incubated overnight at 35° C. in an anaerobic chamber (85/10/5; N2, CO2, H2) without agitation. The procedure was repeated row by row until each compound was serially diluted. Multiple plates were used if necessary. […] The MIC value was determined for each compounded tested in a row by identifying the well with the lowest concentration of test compound in the serial dilution necessary to maintain a clear well.

The subject of assay [2] is Porphyromonas gingivalis (ATCC strain 33277). Put plainly: Minimum inhibitory concentration (MIC) against Porphyromonas gingivalis, 2-fold serial dilution in Minimal Medium+, visual scoring. The class given is cell-based. The conditions noted are these: P. gingivalis ATCC 33277, Minimal Medium+, overnight at 35° C., anaerobic chamber; for MIC: Porphyromonas gingivalis, ATCC33277. The protocol:
The minimum inhibitory concentration (MIC) values against Porphyromonas gingivalis for a collection of prenylated flavonoids of varying octanol/water partition coefficients (Log P) were determined using a conventional protocol. A culture of Porphyromonas gingivalis (P. gingivalis, ATCC strain 33277) from glycerol stock was grown with a gas mix of 85% nitrogen, 10% CO2, and 5% hydrogen for 48-72 hours at 33° C. by inoculating a large loopful in MTGE (Anaerobe Systems, Morgan Hill, Calif., USA). Following incubation in MTGE, the optical density was adjusted to deliver a target count of between 2×10^7 and 2×10^8 CFU/mL using a turbidimetric target density at 600 nm using P. gingivalis Minimal Medium+. Minimal Medium+ is a growth medium containing 10 mM monosodium phosphate, 10 mM potassium chloride, 10 mM magnesium chloride, 7.7 μM hemin, 2.9 μM menadione, 30 g/L alphaglobuline from bovine blood, 250 μM calcium chloride, 100 mL/L fetal bovine serum, adjusted to pH 7.0 with NaOH. It is made by mixing alphaglobuline in water, adding salts, adjusting to pH 7.0 with NaOH, filtering using […] filter, then adding hemin, menadione, and fetal bovine serum.
as §1, with “The” for “The minimum inhibitory concentration (MIC) values against Streptococcus mutans for a collection of prenylated flavonoids of varying octanol/water partition coefficients (Log P) were determined using a conventional protocol. A culture of Streptococcus mutans (S. mutans, ATCC strain 25175) was grown overnight (18-24 hour incubation time at 35° C.) in a Tryptone Soy Broth (TSB. BD, Becton, Dickinson and Company, Sparks, Md., USA) and adjusted to deliver a target count of between 2×10^7 and 2×10^8 CFU/mL using a turbidimetric target density at 600 nm. The”, “1/50” for “1/1000”, “Minimal Medium+” for “TSB”, “P. gingivalis.” for “S. mutans.”

With `CC(C)=CCc1c(O)cc(O)c2c1O[C@H](c1ccc(O)cc1)CC2=O` [8-Prenylnaringenin], the figures for the MIC in assay [1] and in assay [2] were 12.5 µg/mL (≈ 36.7 µM) and 50 µg/mL (≈ 147 µM), respectively.
For `CC(C)=CCc1cc(-c2coc3cc(O)ccc3c2=O)ccc1O` [Neobavaisoflavone] the same measures were 12.5 µg/mL (≈ 38.8 µM) and 31.2 µg/mL (≈ 96.9 µM).
For `CC(C)=CCc1c(O)ccc(C(=O)/C=C/c2ccc(O)cc2)c1O` [Isobavachalcone] the same measures were 1.56 µg/mL (≈ 4.82 µM) and 12.5 µg/mL (≈ 38.5 µM).
For `COc1cc(O)c(CC=C(C)C)c(O)c1C(=O)/C=C/c1ccc(O)cc1` [Xanthohumol] the same measures were 3.12 µg/mL (≈ 8.82 µM) and 12.5 µg/mL (≈ 35.3 µM).
Turning to `CC(C)=CCC/C(C)=C/Cc1cc(-c2coc3cc(O)ccc3c2=O)ccc1O` [Corylifol A], the “MIC (S. mutans)” value in assay [1] is greater than 500 ppm. In assay [2], the “MIC (P. gingivalis)” value is 15.625 ppm.
For `C=C(C)[C@H](CC=C(C)C)Cc1c(O)cc(O)c2c1O[C@H](c1ccc(O)cc1O)CC2=O` [Sophoraflavanone G] the same measures were 1.5625 ppm and 12.5 ppm.
For `CC(C)=CCc1c(-c2ccc(O)cc2O)oc2c(CC=C(C)C)c(O)cc(O)c2c1=O` [Kuwanon C] the same measures were 0.9766 ppm and 7.8125 ppm.
On to `COc1cc(O)c(C(=O)[C@@H]2[C@H](CC=C(C)C)C(C)=CC[C@H]2c2ccccc2)c(O)c1` [Panduratin A], for which the “MIC (S. mutans)” value in assay [1] is reported as 0.7813 ppm. The “MIC (P. gingivalis)” value in assay [2] was 0.488 ppm.
For `CC(C)=CCc1cc([C@@H]2CC(=O)c3ccc(O)c(CC=C(C)C)c3O2)cc(CC=C(C)C)c1O` [(−)-Sophoranone] the same measures were 125 ppm and 50 ppm.
For `C=C(C)[C@H](CC=C(C)C)Cc1c(O)cc(OC)c2c1O[C@H](c1ccc(O)cc1O)CC2=O` [Kurarinone], the MIC in assay [1] was found to be 3.91 µg/mL (≈ 8.91 µM); in assay [2], 15.6 µg/mL (≈ 35.6 µM).
For the molecule `COc1cc(O)c(CC=C(C)C)c2c1C(=O)CC(c1ccc(O)cc1)O2` (stereo not shown) [Isoxanthohumol], the MIC in assay [1] came to 50 µg/mL (≈ 141 µM); in assay [2], 25 µg/mL (≈ 70.5 µM).
In the case of `CC(C)=CCc1cc(C(=O)/C=C/c2ccc(O)cc2)c(O)cc1O` [Bavachalcone], the “MIC (S. mutans)” value in assay [1] was 3.125 ppm. In addition, the “MIC (P. gingivalis)” value in assay [2] was found to be 12.5 ppm.
On to `COc1ccc(-c2oc3c(CC=C(C)C)c(O[C@@H]4O[C@H](CO)[C@@H](O)[C@H](O)[C@H]4O)cc(O)c3c(=O)c2O[C@@H]2O[C@@H](C)[C@H](O)[C@@H](O)[C@H]2O)cc1` [Icariin], for which the figures for the MIC in assay [1] and in assay [2] were greater than 500 µg/mL and 50 µg/mL (≈ 73.9 µM), respectively.
For `CC(C)=CCc1c(O)cc2c(c1O)C(=O)C[C@@H](c1ccc(O)cc1)O2` [6-Prenylnaringenin] the same measures were 15.6 µg/mL (≈ 45.9 µM) and 25 µg/mL (≈ 73.4 µM).
Regarding `CC(C)=CCc1c(-c2ccc(O)cc2O)oc2c([C@H]3C=C(C)C[C@@H](c4ccc(O)cc4O)[C@@H]3C(=O)c3ccc(O)cc3O)c(O)cc(O)c2c1=O` [Kuwanon G], in assay [1], the “MIC (S. mutans)” value was determined as 3.125 ppm. Also, the “MIC (P. gingivalis)” value in assay [2] came out at 125 ppm.
`CC(C)=CCc1cc2c(cc1O)O[C@H](c1ccc(O)cc1)CC2=O` [Bavachin]: the MIC in assay [1] is greater than 500 µg/mL; in assay [2] it was 31.2 µg/mL (≈ 96.3 µM).
With `COc1ccc(-c2oc3c(CC=C(C)C)c(O)cc(O)c3c(=O)c2O)cc1` [Icaritin], the MIC in assay [1] and in assay [2] was greater than 500 µg/mL in each case.

By MIC is commonly meant the least concentration at which growth counts as inhibited. Low values mean greater potency, high ones weaker potency.
